# According to patent publication US6506749B2, “7-oxo-pyridopyrimidines (I)” (Syntex (U.S.A.) LLC, priority 2000, dated 2003):
# Where a name gives a salt, the structure may show the parent alone.
row,SMILES,melting point [°C]
1,CC(C)CNn1c(=O)c(-c2ccccc2Cl)cc2cnc(NC3CCOCC3)nc21.Cl,111.3 to 117.5
2,Cl.N#CCn1c(=O)c(-c2ccccc2Cl)cc2cnc(NC3CCOCC3)nc21,230.2 to 230.4
3,CCn1c(=O)c(-c2ccccc2Cl)cc2cnc(NC3CCS(=O)(=O)CC3)nc21.Cl,285.2 to 286.7
4,Cl.Nn1c(=O)c(-c2ccccc2Cl)cc2cnc(NC3CCOCC3)nc21,207.1 to 215.9
5,CC(C)(O)Cn1c(=O)c(-c2ccccc2Cl)cc2cnc(NC3CCOCC3)nc21 [Cpd 117],189 to 191.5
6,Cl.Cn1c(=O)c(-c2ccccc2Cl)cc2cnc(NC3CCC4(CC3)OCC(C)(CO)CO4)nc21 (centres unmarked),180.3 to 181.2
7,Cn1c(=O)c(-c2ccccc2Cl)cc2cnc(NC3CCC4(CC3)OCCCO4)nc21 [Cpd 8],196.1 to 196.5
8,Cl.O=c1c(-c2ccccc2Cl)cc2cnc(NC3CCOCC3)nc2n1-c1ccc(F)cc1,150 to 154
9,Cl.O=c1[nH]c2nc(NCC3CCC(O)CC3)ncc2cc1-c1ccccc1Cl (centres unmarked),205 to 213
10,Cl.Cn1c(=O)c(-c2ccccc2Cl)cc2cnc(NN3CCN(CCO)CC3)nc21,274.4 to 274.8
11,Cl.O=c1c(-c2ccccc2Cl)cc2cnc(N[C@H]3CC[C@H](O)CC3)nc2n1CCO,210.5 to 212
12,Cl.Cn1c(=O)c(-c2ccccc2Cl)cc2cnc(N[C@H]3CC[C@H](OC(N)=O)CC3)nc21,234.7 to 235.4
13,"Cn1c(=O)c(-c2ccccc2Cl)cc2cnc(N[C@H]3CC[C@H](N)CC3)nc21 (as salt: hydrochloride) [Example 13, 2-(trans-4-aminocyclohexylamino)-6-(2-chlorophenyl)-8-methyl-pyrido[2,3-d]pyrimidin-7-one]",190.3 to 191.4
14,CN1CCN(Nc2ncc3cc(-c4ccccc4Cl)c(=O)n(C)c3n2)CC1 [Example 85],125.7 to 128.1
15,O=c1c(-c2ccccc2Cl)cc2cnc(N[C@H]3CC[C@H](O)CC3)nc2n1CC(F)(F)F [Example 55],227.2 to 230.4
16,O=C1CCC(Nc2ncc3cc(-c4ccccc4Cl)c(=O)n(CC(F)(F)F)c3n2)CC1 (as salt: hydrochloride) [Example 59],251.2 to 252
17,CN(C)S(=O)(=O)N[C@H]1CC[C@H](Nc2ncc3cc(-c4ccccc4Cl)c(=O)n(C)c3n2)CC1.Cl,226.5 to 229
18,O=CO[C@H]1CC[C@H](Nc2ncc3cc(-c4ccccc4Cl)c(=O)[nH]c3n2)CC1 [Cpd 19],> 300
19,Cl.O=c1[nH]c2nc(NC3CCOCC3)ncc2cc1-c1ccccc1Cl,> 300
20,Cl.O=c1c(-c2ccccc2Cl)cc2cnc(NC3CCOCC3)nc2n1CCO,217 to 220
21,Cl.Cn1c(=O)c(-c2ccccc2Cl)cc2cnc(NC3CC(C)(C)NC(C)(C)C3)nc21,> 300
22,Cl.O=c1c(-c2ccccc2Cl)cc2cnc(NC3CCS(=O)(=O)CC3)nc2n1CCO,182 to 186

row,SMILES,melting point [°C]
1,Cl.Cn1c(=O)c(-c2ccccc2Cl)cc2cnc(NC3CCC(C(=O)O)CC3)nc21 (centres unmarked),263.6 to 264.2
2,CO[C@H]1CC[C@H](N(C)c2ncc3cc(-c4ccccc4Cl)c(=O)n(C)c3n2)CC1.Cl,182.3 to 183.1
3,CCS(=O)(=O)CCC(C)Nc1ncc2cc(-c3ccccc3Cl)c(=O)n(C)c2n1 (centres unmarked) (as salt: hydrochloride) [Example 102],160.1 to 167
4,Cl.O=C1CCC(Nc2ncc3cc(-c4ccccc4Cl)c(=O)n(-c4ccc(F)cc4)c3n2)CC1,242.7 to 243.6
5,Cl.Cn1c(=O)c(-c2ccccc2Cl)cc2cnc(NC3CCS(=O)(=O)C3)nc21 (centres unmarked),256 to 260
6,"CS(=O)(=O)N[C@H]1CC[C@H](Nc2ncc3c(n2)=NC(=O)C(c2ccccc2Cl)C=3)CC1 (stereo partly drawn) (as salt: hydrochloric acid salt) [Example 16, 2-(trans-4-methanesulfonylaminocyclohexylamino)-6-(2-chlorophenyl)-pyrido[2,3-d]pyrimidin-7-one]",> 300
7,CC(C)(C)Cn1c(=O)c(-c2ccccc2Cl)cc2cnc(NC3CCS(=O)(=O)CC3)nc21.Cl,223.7 to 230.2
8,CC(C)(CO)Nc1ncc2cc(-c3ccccc3Cl)c(=O)n(N)c2n1.Cl,145 to 163
9,Cc1ccccc1-c1cc2cnc(NC3CCSCC3)nc2n(C)c1=O [Cpd 140],186.6 to 188.1
10,N[C@H]1CC[C@H](Nc2ncc3cc(-c4ccccc4Cl)c(=O)[nH]c3n2)CC1 (as salt: salt) [Cpd 17],> 300
11,Cl.Cn1c(=O)c(-c2ccccc2Cl)cc2cnc(N[C@@H]3CCOC3)nc21,171.9 to 173
12,COc1ccccc1-c1cc(/C=N\C(=N)NC2CCOCC2)cn(C)c1=O.Cl,212 to 213.7
13,Cl.Cn1c(=O)c(-c2ccccc2Cl)cc2cnc(NC3CCC4(CC3)OCC(CO)CO4)nc21 (centres unmarked),146 to 150
14,COC(=O)O[C@H]1CC[C@H](Nc2ncc3cc(-c4ccccc4Cl)c(=O)n(C)c3n2)CC1.Cl,213.9 to 214.4
15,O=c1c(-c2ccccc2Cl)cc2cnc(N[C@H]3CC[C@H](O)CC3)nc2n1Cc1ccccc1 (as salt: HCl) [Example 41],202 to 206
16,Cl.Cn1c(=O)c(-c2ccccc2Cl)cc2cnc(NC3CCC4(CC3)NC(=O)NC4=O)nc21 (centres unmarked),> 300
17,Cl.NC(=O)O[C@H]1CC[C@H](Nc2ncc3cc(-c4ccccc4Cl)c(=O)[nH]c3n2)CC1,291 to 293.5
18,CCOC(=O)C1CCC(Nc2ncc3cc(-c4ccccc4Cl)c(=O)n(C)c3n2)CC1.Cl (centres unmarked),192.1 to 198.3
19,CC(CCO)Nc1ncc2cc(-c3ccccc3Cl)c(=O)n(C)c2n1.Cl (centres unmarked),180.7 to 189.2
20,CN(C)S(=O)(=O)N[C@H]1CC[C@H](Nc2ncc3cc(-c4ccccc4Cl)c(=O)[nH]c3n2)CC1.Cl,262.2 to 262.5
21,Cl.O=C1CCC(Nc2ncc3cc(-c4ccccc4Cl)c(=O)[nH]c3n2)CC1,265.5 to 269.9
22,Cl.O=c1[nH]c2nc(NC3(CO)CCCC3)ncc2cc1-c1ccccc1Cl,290 to 293

# More lines, now with the values ahead:
row,melting point [°C],SMILES
1,205 to 207.5,Cl.Cn1c(=O)c(-c2ccccc2F)cc2cnc(NC3CCN(S(C)(=O)=O)CC3)nc21
2,204.6 to 205.6,Cl.Cn1c(=O)c(-c2ccccc2Cl)cc2cnc(NC3CCN(CCS(C)(=O)=O)CC3)nc21
3,150 to 168,COC(=O)CN1CCC(Nc2ncc3cc(-c4ccccc4Cl)c(=O)n(C)c3n2)CC1.Cl
4,215 to 219,Cl.Cn1c(=O)c(-c2ccccc2Cl)cc2cnc(NC3CCN(S(=O)(=O)CC(F)(F)F)CC3)nc21
5,148.6 to 151.6,CS(=O)(=O)N1CCC(Nc2ncc3cc(-c4ccccc4Cl)c(=O)n(CC(F)(F)F)c3n2)CC1.Cl
6,218.5 to 219.3,CCS(=O)(=O)N1CCC(Nc2ncc3cc(-c4ccccc4C)c(=O)n(C)c3n2)CC1.Cl
7,156 to 169,Cl.Cn1c(=O)c(-c2ccccc2Cl)cc2cnc(N[C@H]3CC[C@@](C)(O)CC3)nc21
8,128 to 141.5,CS(=O)(=O)N1CCC(Nc2ncc3cc(-c4ccccc4Cl)c(=O)n(C4CC4)c3n2)CC1 (as salt: hydrochloride) [Example 88]
9,64 to 102.6,CNC(=O)CN1CCC(Nc2ncc3cc(-c4ccccc4Cl)c(=O)n(C)c3n2)CC1.Cl
10,265.9 to 266.6,Cl.Cn1c(=O)c(-c2ccccc2Cl)cc2cnc(NC3CCN(CCO)CC3)nc21
11,206 to 209,CCCS(=O)(=O)N1CCC(Nc2ncc3cc(-c4ccccc4F)c(=O)n(C)c3n2)CC1.Cl
12,260.9 to 261.1,"Cn1c(=O)c(-c2ccccc2Cl)cc2cnc(N[C@H]3CC[C@H](NS(C)(=O)=O)CC3)nc21 (as salt: hydrochloride) [Example 14, 2-(trans-4-methanesulfonylaminocyclohexylamino)-6-(2-chlorophenyl)-8-methyl-pyrido[2,3-d]pyrimidin-7-one]"
13,260.9 to 261.1,Cl.Cn1c(=O)c(-c2ccccc2Cl)cc2cnc(N[C@H]3CC[C@H](NS(C)(=O)=O)CC3)nc21
14,180.7 to 213.2,CS(=O)(=O)N1CCC(Nc2ncc3cc(-c4ccccc4Cl)c(=O)n(N)c3n2)CC1.Cl
15,142 to 149,Cc1ccccc1-c1cc2cnc(NC3CCN(S(=O)(=O)C(C)C)CC3)nc2n(C)c1=O.Cl
16,120.3 to 139.7,CCS(=O)(=O)N1CCC(Nc2ncc3cc(-c4ccccc4OC)c(=O)n(C)c3n2)CC1.Cl
17,202.7 to 204.3,COc1ccccc1-c1cc2cnc(NC3CCN(S(C)(=O)=O)CC3)nc2n(C)c1=O.Cl
18,144 to 150,CCS(=O)(=O)N1CCC(Nc2ncc3cc(-c4ccccc4Cl)c(=O)n(C)c3n2)CC1.Cl
19,225.9 to 226.4,Cl.Cn1c(=O)c(-c2ccccc2F)cc2cnc(NC3CCN(S(=O)(=O)CC(F)(F)F)CC3)nc21
20,185 to 194,Cl.Cn1c(=O)c(-c2ccccc2Cl)cc2cnc(NC3CCN(S(C)(=O)=O)CC3)nc21
21,153 to 162,Cc1ccccc1-c1cc2cnc(NC3CCN(S(=O)(=O)C(F)(F)F)CC3)nc2n(C)c1=O.Cl
22,143 to 148,Cl.Cn1c(=O)c(-c2ccccc2Cl)cc2cnc(NC3CCN(C=O)CC3)nc21
23,134 to 140,Cl.Cn1c(=O)c(-c2ccccc2Cl)cc2cnc(NC3CCN(S(=O)(=O)C(F)(F)F)CC3)nc21
24,194.7 to 196,COc1ccccc1-c1cc2cnc(NC3CCN(S(=O)(=O)CC(F)(F)F)CC3)nc2n(C)c1=O.Cl
25,218.2 to 218.5,CO[C@H]1CC[C@H](Nc2ncc3cc(-c4ccccc4Cl)c(=O)n(C)c3n2)CC1.Cl
26,213.5 to 221,Cl.Cn1c(=O)c(-c2ccccc2F)cc2cnc(NC3CCN(S(=O)(=O)C(F)(F)F)CC3)nc21
27,193.3 to 194.1,CCCS(=O)(=O)N1CCC(Nc2ncc3cc(-c4ccccc4Cl)c(=O)n(C)c3n2)CC1.Cl
28,140.8 to 147.3,COc1ccccc1-c1cc2cnc(NC3CCN(S(=O)(=O)C(F)(F)F)CC3)nc2n(C)c1=O.Cl
29,192.5 to 195,CCS(=O)(=O)N1CCC(Nc2ncc3cc(-c4ccccc4F)c(=O)n(C)c3n2)CC1.Cl
30,157 to 163.1,COc1ccccc1-c1cc2cnc(NC3CCN(S(=O)(=O)C(C)C)CC3)nc2n(C)c1=O.Cl
